Reference: patent US20250085272A1, “METHODS AND SYSTEMS FOR MODULATING AND MODELING AGING AND NEURODEGENERATION DISEASES” (MEMORIAL SLOAN-KETTERING CANCER CENTER, priority 2022, published 2025)
Entries after “also recorded” stand apart in the source; their conditions may differ.

Experiments:
Format in all cases: cell-based, human
APP^swe/swe neurons [1] = assay: Western blotting for p21, LMNB1, BAG1 and BAG3; details: 1 μM from DIV50-DIV60
Text: (§1) Western blotting. Samples for western blotting were harvested, pelleted and snap frozen. Cell pellets were resuspended in RIPA buffer supplemented with Halt protease and phosphatase inhibitors (ThermoFisher) followed by centrifugation to clarify the sample. Protein concentration was quantified using the Precision Red Advanced Protein Assay according to manufacturer's instructions and equal amounts of protein were mixed with NuPAGE LDS Sample Buffer and NuPAGE Sample Reducing Agent and heated to 72 degrees for 10 mins. A total of 5-20 μg of protein was separated on NuPAGE Novex 4-12% Bis Tris gels and transferred by wet blotting onto PVDF membranes. Membranes were blocked in 5% milk protein or 5% BSA when probing for the phospho-Tau. Primary antibodies used for this study were: β-ACTIN (Sigma, A2228-100UL), BAG1 (Santa Cruz, sc-33704), BAG3 (Abcam, ab47124), Cas9 (Cell Signaling Technologies; 14697S), GAPDH-HRP (Santa Cruz Biotech, sc-47724 HRP), LMNB1 (Abcam, ab16048), NAE1(Cell Signaling Technologies, 14321S), NEDD8 (Abcam, ab81264), p21 (Cell Signaling Technologies, 2947), TAU (Dako, A0024), p-TAU(S202/T205) (Thermo Fisher; MN1020), UBA3 (Abcam, ab124728). Band intensity was visualized using BioRad ChemiDoc XRS+molecular imager. After imaging the membrane was re-probed with either GAPDH or β-ACTIN antibodies for normalization. Band intensity was quantified using Fiji.

[2] = test system: conjugation of NEDD8 to target proteins; assay: Western blotting for conjugation of NEDD8 to target proteins in cortical neurons; details: 1 μM; postmitotic cortical neurons; 3 hours or 7 days of treatment
Text: as §1

APP^swe/swe neurons [3] = assay: Senescence associated β-gal, brightfield images; details: 1 μM for 10 days
[4] = test system: H9-Nurr1^GFP neurons having the LRRK2 G2019S mutation; assay: Viability of neurons with the LRRK2 G2019S mutation; details: LRRK2 G2019S neurons (FIG. 26C)
[5] = test system: APP^swe/swe cortical neurons; assay: pATM immunofluorescence (DNA damage); details: 1 μM for 7 days
Experimental: Immunocytochemistry. Cells were fixed in 4% paraformaldehyde for 10 mins then permeabilized in PBS+0.3% Triton. Cells were blocked in 5% donkey or goat serum for 1 h. Primary antibody incubation was performed overnight. Primary antibodies used in this study were: p-ATM (S1981) (Thermo Fisher; MA1-2020), Cas9 (Cell Signaling Technologies; 14697S), COL1A1 (R&D; AF6220), FOXG1 (Takara; M227), Ki67 (Dako; M7240), MAP2 (Thermo Fisher; PA1-16751), NANOG (Cell Signaling Technologies; 4903S), PAX6 (Biolegend; 901301), TAU (Thermo Fisher; MN1000), p-TAU (S235) (Thermo Fisher; PA5-104785). For all image quantifications images were taken from 3 individual wells and averaged. This was repeated three times with neurons from independent differentiations. Volocity was used to count MAP2+ and Ki67+ cells with pyknotic. DAPI^bright nuclei excluded from the cell count. FIJI was used for TAU and pATM quantifications.

AD neurons = assay: Nuclear roundness and nuclear area of AD neurons
[6] = test system: neurons with the PSEN^M146V/M146V mutation; assay: Viability of neurons with the PSEN^M146V/M146V mutation; details: PSEN^M146V/M146V neurons (FIG. 25B)
[7] = test system: wild-type or APP^swe/swe neurons; assay: Flow cytometry for aging hallmarks (proteostasis, heterochromatin, senescence)
Experimental: Flow Cytometry. Neuronal cultures were dissociated to single cell suspensions using Accutase (Innovative Cell Technologies) supplemented with Neuron Isolation Enzyme for Pierce™ (Thermo 88285) solution at 1:50. Single cell suspensions were stained with Zombie UV™ Fixable Viability Kit (Biolegend 423107) at 1:2500 in PBS for 15 minutes at room temperature, followed by fixation in 4% Paraformaldehyde for 10 minutes (4° C.). Cells stained with CellEvent Senescence Green (Thermo C10840) were done so at 1:250 in assay buffer for 2 hours at 37° C. For intracellular probes, cells were permeabilized in 0.5% triton-x for 10 minutes (4° C.), and blocked in 5% BSA for 10 minutes (4° C.). Cells were stained with H3k9me3-PE antibody (Cell Signaling Technologies #13969S) diluted 1:200, and Proteostat (Enzo Life Sciences ENZ-51023-KP050) diluted 1:2500, in 5% BSA in PBS for 30 minutes at 4° C. Cells were analyzed on the Cytek Aurora Flow Cytometer. Experiments were repeated with cells from 3 independent differentiations.

wild-type neurons = assay: Western blotting for pTau(S202/T205) and total Tau, wild-type neurons; details: wild-type neurons (FIG. 23C)
Text: as §1

APP^swe/swe neurons [8] = assay: Western blotting for pTau(S202/T205) and total Tau, APP^swe/swe neurons
Text: as §1

NS(=O)(=O)OC[C@@H]1C[C@@H](n2ccc3c(N[C@H]4CCc5ccccc54)ncnc32)C[C@@H]1O [MLN4924, [(1S,2S,4R)-4-[4-[[(1S)-2,3-Dihydro-1H-inden-1-yl]amino]-7H-pyrrolo[2,3-d]pyrimidin-7-yl]-2-hydroxycyclopentyl]methyl sulfamic acid ester]
cellular senescence (p21, LAMNB1 Western blotting) (APP^swe/swe neurons [1]): increased cellular senescence
proteostasis (BAG1, BAG3 Western blotting) (APP^swe/swe neurons [1]): loss of proteostasis
conjugation of NEDD8 to target proteins [2]: effectively block the conjugation of NEDD8 to target proteins; also recorded: blocks conjugation of NEDD8 to target proteins
β-gal positive neurons (senescence) (APP^swe/swe neurons [3]): induction of showing β-gal positive
viability [4]: reduced viability
pATM induction (DNA damage) [5]: pATM induction
nuclear roundness (nuclear lamina defects) (AD neurons; AD neurons (FIG. 28A)): decreased nuclear roundness
nuclear area (cellular senescence) (AD neurons; AD neurons (FIG. 28B)): increased nuclear area
viability [6]: reduced viability
cellular hallmarks of age ([7]; 1 μM for 7 or 10 days, AD-PSC (APP^swe/swe) cortical neurons (FIGS. 3A-3E)): induces cellular hallmarks of age
cellular age (protein aggregation, senescence, histone methylation) ([7]; wild-type or APP^swe/swe neurons, versus DMSO (FIG. 27)): induces cellular age in both wild-type and disease backgrounds
change in pTAU(AT8) forms (wild-type neurons): did not show the change
changes in phosphorylated Tau (APP^swe/swe neurons [8]; 1 μM from DIV50-DIV60, App^swe/swe versus wild-type neurons (FIGS. 4C-4F)): AD-specific changes in phosphorylated Tau
high molecular weight form of pTAU(AT8) (APP^swe/swe neurons [8]; AD neurons (FIG. 23A-23B)): increase in the high molecular weight form
major form of pTAU(AT8) (APP^swe/swe neurons [8]; AD neurons (FIG. 23A-23B)): decrease in major form of pTAU(AT8)
